Measured values: patent publication US8597616B2 (priority 2007, dated 2013)

How the values were obtained:
normovolemic swine model = conditions: in vivo
[1] = test system: swine model of cardiac arrest; conditions: in vivo

CNC[C@H](O)c1ccc(O)c(O)c1 [epinephrine, (R)-4-(1-hydroxy-2-(methylamino)ethyl)benzene-1,2-diol]
increase of MAP over baseline (normovolemic swine model): more than 60 mmHg | time post injection at which increases in MAP were detected (normovolemic swine model): 10 to 20 s | time post injection to peak MAP (normovolemic swine model): ≤ 60 s | sustained MAP (normovolemic swine model; 0.4 mg/kg): more than 60 mmHg | time post-injection at which an increase in MAP was detected (normovolemic swine model; iv): 30 s | time from administration until absorbed and placed into the circulating blood (normovolemic swine model; swine): 10 to 20 s | peak MAP [1]: 90 mmHg | sustained pressure over baseline [1]: greater than 50 mmHg | time post injection at which increases in MAP were detected [1]: 10 to 20 s | time post injection to peak MAP [1]: ≤ 60 s | time to MAP peak at sustained pressure over baseline [1]: ≤ 80 s | time until physiological effects (increase in MAP over baseline MAP) were detected [1]: < 20 seconds | time until rapid and sustained MAP occurred [1]: < 60 s
